Test results reported in patent US20240366729A1, “COMBINATION OF A NURR1 AGONIST WITH AT LEAST ONE OF AN ALDOSTERONE ANTAGONIST, AN INSULIN MODULATOR AND A SULFONYLUREA” (GENESIS PHARMA SA, priority 2021, published 2024).
Entries after “also recorded” stand apart in the source; their conditions may differ.

Assays:
Nurr1 = Nurr1 (Homo sapiens, UniProt P43354); details: through physical interaction with its ligand binding domain (LBD); cited from earlier work
[1] = test system: mouse model of intracerebral haemorrhage (ICH); details: 40 mg/kg, cited from earlier work
[2] = test system: rat superior mesenteric arteries; details: cited from earlier work
[3] = test system: rat model of transient middle cerebral artery occlusion (t-MCAO); assay: Neurological score (NSS), rat t-MCAO model, 7-day treatment (Example 2); type: in vivo; details: for Neurological score (NSS) vs vehicle: Day 1 and Day 8
Experimental: The study was performed in cycles, each one containing at least nine rats. Test compounds were administrated 20 minutes before reperfusion and twice a day thereafter. On Day 1, stroke was induced by the t-MCAO procedure. Neurological score (NSS), was performed before surgery, 24 hours and 7 days after t-MCAO. At study termination brains were harvested, sliced into five 2 mm thick coronal sections and stained with TTC for infarct size measurement. The experimental design and timeline for the two parts of the study are presented below.
The right Common Carotid artery (CCA) was exposed through a midline neck incision and carefully dissected free from surrounding nerves and fascia—from its bifurcation to the base of the skull. The Occipital artery branches of the External Carotid artery (ECA) were isolated, and these branches were dissected and coagulated. The ECA was dissected further distally and coagulated along with the terminal lingual and maxillary artery branches, just before their bifurcation. The Internal Carotid artery (ICA) was isolated and carefully separated from the adjacent Vagus nerve, and the Pterygopalatine artery was ligated close to its origin with a 5-0 nylon suture. […] The surgical wound was closed and the animals were returned to their cages to recover from anesthesia. One hour and half after occlusion rats were re-anesthetized and monofilament was withdrawn to allow reperfusion. The surgical wound was closed and rats were returned to their cages. Following surgery, animals were placed on a heating pad until their recovery from the anesthesia. All animals received subcutaneous Meloxicam at 2 mg/kg before and after surgery, daily during the next two days. They were observed frequently on the day of t-MCAO surgery and at least once daily thereafter.
Treatment was start 20 minutes before reperfusion and then at the end of the same day, via IP administration of the test compounds. Treatment continued twice a day for six consecutive days thereafter.
Neuroscore was graded on a scale of 0 to 18 (in which normal score is 0 and maximal deficit score is represented by 18).

[4] = test system: rat thromboembolic model of stroke; details: continuous infusion 75 ng/h; 7 days post middle cerebral artery occlusion; cited from earlier work
[5] = test system: patients with large hemispheric infarctions; details: intravenous 0.13 mg bolus, 0.16 mg/h for 6 h, then 0.11 mg/h for 66 h; cited from earlier work
[6] = test system: rodent models of brain ischemia and reperfusion injury; details: 1 mg/kg administered 10 min before reperfusion; cited from earlier work
[7] = test system: experimental intracerebral hemorrhage in mice; details: 10 μg either before or at 2 h after hemorrhage; cited from earlier work
[8] = test system: collagenase-induced intracerebral hemorrhage; details: 10 μg/kg loading dose followed by 200 ng/h for up to 7 days; cited from earlier work
[9] = test system: patients with acute hemispheric infarction; details: oral administration; cited from earlier work
[10] = test system: rat model of stroke (middle cerebral artery occlusion); details: 10 μg/kg IP loading dose plus 200 ng/h subcutaneous infusion beginning 4.5 h or 10 h after onset of ischemia; cited from earlier work
[11] = test system: rodent models of subarachnoid hemorrhage; details: loading dose 10 μg/kg intraperitoneally, then infusion 200 ng/hr for 24 hours or one week; cited from earlier work
[12] = test system: rat model of transient middle cerebral artery occlusion (t-MCAO); assay: Brain infarct size (TTC staining, ImageJ), rat t-MCAO model, Example 2; type: in vivo; details: at termination; amodiaquine 0.5 mg/kg, potassium canrenoate 0.33 mg/kg, glibenclamide 1 μg/kg, exenatide 0.05 μg/kg; vehicle 38%

Chain of Nurr1 (P43354 whole entry, species assumed, the tested form may be a part): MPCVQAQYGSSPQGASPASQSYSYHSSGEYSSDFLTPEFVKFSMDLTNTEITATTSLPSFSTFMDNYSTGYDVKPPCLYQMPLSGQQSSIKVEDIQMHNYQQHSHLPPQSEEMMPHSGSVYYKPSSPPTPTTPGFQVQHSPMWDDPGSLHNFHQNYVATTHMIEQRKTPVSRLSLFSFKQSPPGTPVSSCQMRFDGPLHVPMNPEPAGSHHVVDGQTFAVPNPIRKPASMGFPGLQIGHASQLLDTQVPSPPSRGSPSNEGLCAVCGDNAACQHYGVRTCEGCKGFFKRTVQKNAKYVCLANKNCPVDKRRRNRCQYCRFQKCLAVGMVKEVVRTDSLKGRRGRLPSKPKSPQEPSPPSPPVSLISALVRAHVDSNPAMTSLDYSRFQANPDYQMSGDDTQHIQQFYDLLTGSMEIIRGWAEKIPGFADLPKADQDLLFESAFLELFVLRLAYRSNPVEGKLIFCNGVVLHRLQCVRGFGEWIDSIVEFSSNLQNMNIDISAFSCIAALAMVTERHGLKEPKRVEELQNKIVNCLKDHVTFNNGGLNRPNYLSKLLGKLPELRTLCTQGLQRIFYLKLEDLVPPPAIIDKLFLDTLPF

For `CCN(CC)Cc1cc(Nc2ccnc3cc(Cl)ccc23)ccc1O` [Amodiaquine, 4-[(7-chloroquinolin-4-yl)amino]-2[(diethylamino)methyl]-phenol], the “Transcriptional function of Nurr1” value (Nurr1) is given as “stimulate the transcriptional function of Nurr1”, the “Perihematomal activation of microglia/macrophages and astrocytes” value ([1]; i.p. daily from 3 h after ICH induction) is given as “diminished perihematomal activation of microglia/macrophages and astrocytes” and the “ICH-induced mRNA expression of IL-1β, CCL2 and CXCL2” value ([1]; i.p. daily) is given as “suppressed ICH-induced mRNA expression of IL-1β, CCL2 and CXCL2”. For the same compound, the Motor dysfunction ([1]; i.p. daily) was “ameliorated motor dysfunction”, the Vasorelaxation [2] was “induce vasorelaxation” and the “Neurological score (NSS) vs vehicle” value ([3]; amodiaquine 0.5 mg/kg (Group 5M), 20 min before reperfusion and twice a day) was “Statistically significant differences; also recorded: statistically significant NSS improvement”. The “Neurological score (NSS) vs vehicle” value ([3]; amodiaquine 7 mg/kg (Group 3M), 20 min before reperfusion and twice a day) was “Statistically significant differences; also recorded: statistically significant NSS improvement”, the “Neurological score (NSS) vs vehicle” value ([3]; amodiaquine 20 mg/kg (Group 2M), 20 min before reperfusion and twice a day) was “Statistically significant differences; also recorded: statistically significant NSS improvement” and the “Neurological score (NSS) vs vehicle, monotherapy at different doses” value ([3]; amodiaquine 0.5-20 mg/kg) was “improved significantly and dose dependently the neurological score”.

For `COc1ccc(Cl)cc1C(=O)NCCc1ccc(S(=O)(=O)NC(=O)NC2CCCCC2)cc1` [Glibenclamide, 5-chloro-N-[2-[4-(cyclohexylcarbamoyl-sulfamoyl)phenyl]ethyl]-2-methoxybenzamide], the “Reduction of cerebral edema, infarct volume and mortality” value [4] is given as 50%, the “Brain swelling (midline shift), MMP-9, functional outcomes and mortality” value [5] is given as “promising findings” and the “Efficacy in brain ischemia and reperfusion injury” value [6] is given as “effective”. For the same compound, the “Cerebral edema, BBB disruption and neurological deficit” value [7] was “alleviate cerebral edema, disrupted BBB, and neurological deficit”, the “Efficacy in collagenase intracerebral hemorrhage” value [8] was “not effective” and the 6-month functional outcome [9] was “did not substantially improve 6-month functional outcome”. For the same compound, the Safety of treatment [9] was “safe”, the “Hemispheric swelling, mortality and Garcia scores” value [10] was “significantly reduced hemispheric swelling at 24 h and 48-h mortality and improved Garcia scores at 48 h” and the “Efficacy in subarachnoid hemorrhage” value [11] was “effective”.

In the case of `C[C@]12CCC(=O)C=C1C=C[C@@H]1[C@@H]2CC[C@@]2(C)[C@H]1CC[C@@]2(O)CCC(=O)[O-].[K+]` [Potassium canrenoate, potassium 3-[(8R,9S,10R,13S,14S,17R)-17-hydroxy-10,13-dimethyl-3-oxo-2,8,9,11,12,14,15,16-octahydro-1H-cyclopenta[a]phenanthren-17-yl]propanoate], the “Brain infarct size vs vehicle, Part II” value [12] is reported as “Statistically significant differences in infarct size; also recorded: Less prominent decrease in infarct volume” and the “Neurological score (NSS) vs vehicle, Part II” value ([3]; Day 1, amodiaquine 0.5 mg/kg, potassium canrenoate 0.33 mg/kg, glibenclamide 1 μg/kg, exenatide 0.05 μg/kg, 20 min before reperfusion and twice a day) is reported as “Statistically significant differences”.

In the case of `CCN(CC)CCCC(C)Nc1ccnc2cc(Cl)ccc12` (stereo not drawn) [chloroquine], the “Transcriptional function of Nurr1” value (Nurr1) is given as “stimulate the transcriptional function of Nurr1”.
